Data as given in the NIST ThermoML archive (doi:10.1016/j.jct.2016.06.016).
± gives the expanded uncertainty stated by the source.

Assay: xn = mol fraction of the nth substance listed
Settings: 100 kPa, Liquid; for viscosity: Concentric cylinders viscometry; for mass density: Vibrating tube method

CCOC(=O)CCC(=O)OCC [diethyl butanedioate] + CCCO
Settings	mass density, 288.15 K [kg/m3]	mass density, 293.15 K [kg/m3]	mass density, 298.15 K [kg/m3]	mass density, 303.15 K [kg/m3]	viscosity, 288.15 K [mPa·s]	viscosity, 293.15 K [mPa·s]	viscosity, 298.15 K [mPa·s]	viscosity, 303.15 K [mPa·s]
x1 = 0.1	854.4 ± 0.81	850.08 ± 0.81	845.75 ± 0.81	841.4 ± 0.81	2.13 ± 0.019	1.889 ± 0.017	1.69 ± 0.015	1.519 ± 0.014
x1 = 0.2	891.88 ± 0.81	887.33 ± 0.81	882.77 ± 0.81	878.18 ± 0.81	2.009 ± 0.018	1.788 ± 0.016	1.608 ± 0.015	1.452 ± 0.013
x1 = 0.2999	922.67 ± 0.81	917.95 ± 0.81	913.21 ± 0.81	908.46 ± 0.81	2.025 ± 0.018	1.804 ± 0.016	1.622 ± 0.015	1.465 ± 0.014
x1 = 0.3998	948.47 ± 0.81	943.61 ± 0.81	938.75 ± 0.81	933.87 ± 0.81	2.105 ± 0.019	1.875 ± 0.017	1.684 ± 0.016	1.518 ± 0.014
x1 = 0.4999	970.46 ± 0.81	965.5 ± 0.81	960.54 ± 0.81	955.57 ± 0.81	2.214 ± 0.02	1.971 ± 0.018	1.767 ± 0.016	1.593 ± 0.015
x1 = 0.6001	989.43 ± 0.81	984.4 ± 0.81	979.36 ± 0.81	974.32 ± 0.81	2.341 ± 0.022	2.082 ± 0.019	1.866 ± 0.017	1.682 ± 0.016
x1 = 0.7001	1005.92 ± 0.82	1000.83 ± 0.82	995.74 ± 0.82	990.64 ± 0.82	2.496 ± 0.023	2.215 ± 0.021	1.983 ± 0.019	1.787 ± 0.017
x1 = 0.8002	1020.45 ± 0.82	1015.31 ± 0.82	1010.18 ± 0.82	1005.04 ± 0.82	2.69 ± 0.025	2.379 ± 0.022	2.126 ± 0.02	1.912 ± 0.018
x1 = 0.8997	1033.27 ± 0.83	1028.1 ± 0.83	1022.93 ± 0.83	1017.76 ± 0.83	2.926 ± 0.028	2.578 ± 0.024	2.297 ± 0.022	2.061 ± 0.02
x1 = 1	1044.83 ± 0.84	1039.63 ± 0.83	1034.44 ± 0.83	1029.25 ± 0.83	3.195 ± 0.03	2.807 ± 0.027	2.491 ± 0.024	2.229 ± 0.022
